Patent US20260042801A1, “COMPOSITIONS AND METHODS FOR DYE-BOUND CYCLIZED PEPTIDES FOR MEDICAL USE” (The Texas A&M University System, priority 2022, published 2026)

Legend:
Synapsin I = experiment: Astrocyte Synapsin I staining (fluorescent intensity); format: cell-based, mouse; conditions: astrocytes from 6-month-old male mice, 5 μM, 3 days
Experimental: (§1) FIGS. 4A-4D: 5c(i) induces Synapsin I production and reduces C3 and GSK-3s expression from astrocytes promoting neuron survival and neurite growth. Primary adult cortical astrocytes from 6-month-old male mice were incubated with 5 μM 5c(i) for 3 days. Graph represents mean±SEM of percent change in fluorescent intensity (Synapsin I and C3) or chemiluminescence (GSK-3β) relative to Vehicle (4A and 4D). Images represent the 4B) Vehicle and 4C) 5 μM 5c(i) treated groups stained with Synapsin I and DAPI. D) Cortical astrocytes from 6-month-old male mice were plated and treated with 5c(i) or Vehicle for 2 days. Cells were then washed and cortical neurons from 6-month-old male mice were added on top of the astrocytes. […] Scale bar=50 μm.
(§2) To determine if 5c(i) can modulate astrocytes, adult astrocytes from 6-month-old male mice were treated with 5c(i) for 3 days and stained with Synapsin I and C3 to measure changes in fluorescent intensity or western blot was conducted on the cell lysate to assess changes in GSK-3β expression (FIG. 4). […] To determine if 5c(i) treated astrocytes can directly benefit neuronal recovery, astrocytes were cultured with 5c(i) for 2 days before removing 5c(i) from the culture and plating adult neurons on top of the astrocytes for 2DIV, resulting in increased neuron survival and neurite growth. […]

[1] = tested on: adult cortical neurons on astrocytes; experiment: Neurons plated on 5c(i)-pretreated astrocytes; format: cell-based, mouse; conditions: astrocytes cultured with 5c(i) 2 days, 5c(i) removed, neurons 2DIV
Experimental: as §1, §2

[2] = tested on: severe T8 contusion/compression SCI; experiment: Preclinical SCI model: histological analysis of spinal cord; format: in vivo, mouse; conditions: 7 weeks post injury
Excerpt: FIGS. 11A-11E: Histological analysis of spinal cords after 5c(i) treatment. […] 7 weeks post injury, spinal cords were sectioned sagittal to conduct histological analyses. Value of 11A) change in intensity of 5-HT, average fluorescence intensity of 11B) IBA1 and 11C) CD68, and number of 11D) CD68+ and 11E) SOX9+ cells in relation to distance from injury (− value represents rostral to injury, + value represents caudal to injury). […] N=6-8. Graphs show mean and SEM. […] Student's T-test.
Mice were sacrificed 7 weeks after injury by a lethal dose of Fatal plus (pentobarbital), then, transcardial perfusion was performed with PBS-Heparin (10,000 unit/L, 20 mL, 5 mL/min) followed by a 4% paraformaldehyde fixative solution (30 mL/mouse, at 5 mL/min). Right after perfusion, tissues were immersed in 4% PFA for 24 hours, transferred to 15% sucrose for 24 hours, then transferred to 30% sucrose for 24 hours before being embedded. Subsequently, the spinal cords (at injury site±1 mm) were cut into 25 μm-thick transverse sections using a freezing microtome (THERMO FISHER SCIENTIFIC® (laboratory reagents), Microm HM550). For immunohistochemistry (IHC), the spinal cord tissue sections were placed in a blocking solution (5% BSA, 0.4% Triton X-100, PBS) for 1 hour at room temperature. This was followed by overnight incubation with primary antibodies at room temperature. The tissue sections were subsequently washed 3 times with 0.4% Triton X-100-PBS, followed by 1 hour incubation at room temperature with the appropriate secondary antibodies (1:500, INVITROGEN™ (laboratory reagents) ALEXA FLUOR® (fluorescent dyes) Plus series). The primary antibodies included biotinylated NeuN (EMD MILLIPORE® (pharmaceuticals and chemicals), MAB377B, 1:500), rat GFAP (FISHER SCIENTIFIC® (laboratory reagents), 130300, 1:500), rabbit Iba1 (FUJIFILM® (camera components) Wako Chemicals, 019-19741, 1:500), rat CD68 (BIO-RAD®, (electrophoresis and chromatography materials) MCA1957, 1:500), goat SOX9 (R&D SYSTEMS® (biological reagents), AF3075, 1:500), and rabbit anti-5-HT (ImmunoStar, 20080, 1:500). Sections were stained with DAPI (1:5000, Millipore Sigma) to visualize the nucleus. The images were acquired using VS120 Virtual Slide Microscope (Olympus) and Axio Observer 7 (ZEISS® (optical products)) and analyzed with QuPath 0.4.3. The contour (polygonal) tool in the Zen 3.2 (Carl Zeiss AG, Jena, Germany) software was used to trace and measure lesion and cavity size. The lesion size was measured by tracing the glial scar border labeled with GFAP surrounding a DAPI^+ inner region. Cavity size was measured by measuring the region within the spinal cord without any visible nuclei yet surrounded by GFAP labeled glial scar. Three spinal cord sections per animal were imaged and analyzed. The 3 sections included the section containing the largest lesion size along with sections 300 μm rostral and caudal. Images were quantified using QuPath software. Eight boxes with a width of 200 μm were drawn both rostral and caudal of the injury epicenter. A contour polygon was made around the spinal cord in each of the sixteen boxes. Fluorescent intensity and cell counting was conducted using automated QuPath software. Histological analysis on liver tissue was conducted by sectioning the left lobe of the liver into 8 μm-thick transverse sections. […] Collagen accumulation was quantified using automated QuPath software to determine the extent of fibrosis.

## C-DIRG-C BODIPY® (fluorescent dye) [5c(i)]
Synapsin I
  Synapsin I production: significant increase
[1]
  neurite growth on pretreated astrocytes: increased
  neuron survival on pretreated astrocytes: increased
[2]; around the injury site
  number of SOX9′ cells: reduced
  prevalence of CD68+ cells: significantly reduced
[2]; at the injury site
  CD68 immunoreactivity: significantly reduced
[2]; caudal to the injury site
  serotonergic (5-HT) axon immunoreactivity: increased
[2]; spinal cord
  IBA1 immunoreactivity: reduced
